Reference: patent US8247211B2, “Glycopeptide antibiotics” (American Cyanamid Company, priority 2001, dated 2012)
≈ marks a conversion by molar mass, not a printed value.

Legend:
Test in all cases: In vitro antibacterial evaluation: minimum inhibitory concentration (MIC), broth dilution method
Format in all cases: cell-based
Enterococcus sp. = conditions: broth dilution, 5×10^5 CFU/mL, 18 hours at 35° C.
Experimental: (§1) The minimum inhibitory concentration (MIC), the lowest concentration of the antibiotic which inhibits growth of the test organism, is determined by the broth dilution method using Muller-Hinton II […] (Baltimore Biological Laboratories) following the recommendations of the National Committee for Clinical Laboratory Standards [Methods for dilution antimicrobial susceptibility tests for bacteria that grow aerobically, approved standard M7-A2, National Committee for Clinical Laboratory Standards, Villanova, Pa].
(§2) An inoculum level of 5×10^5 CFU/mL, and a range of antibiotic concentrations (64-0.06 μg/mL) is used. […] The test organisms include a spectrum of Gram-positive bacteria comprised of Staphylococcus sp., Streptococcus sp. and Enterococcus sp. These organisms include recent clinical isolates that are resistant to methicillin, penicillin and/or vancomycin.

Staphylococcus sp. = conditions: for MIC Staphylococcus aureus (ATCC 29213): strain ATCC 29213; for MIC Staphylococcus aureus (GC 1131): strain GC 1131; for MIC Staphylococcus aureus (GC 3051): strain GC 3051; for MIC Staphylococcus aureus (GC 3053): strain GC 3053; for MIC Staphylococcus aureus (GC 4541): strain GC 4541; for MIC Staphylococcus aureus (GC 4542): strain GC 4542; for MIC Staphylococcus aureus (GC 4544): strain GC 4544; for MIC Staphylococcus aureus (GC 4545): strain GC 4545
Experimental: as §1, §2

Escherichia coli = conditions: 5×10^5 CFU/mL, 18 hours at 35° C.
Experimental: as §1, §2

Streptococcus sp. = conditions: broth dilution, 5×10^5 CFU/mL, 18 hours at 35° C.
Experimental: as §1, §2

[1] = broth dilution, 5×10^5 CFU/mL, 18 hours at 35° C.
[2] = broth dilution, 18 hours at 35° C.

MIC Enterococccus avium (GC 4558) (Enterococcus sp.): 2 µg/mL (≈ 1.39 µM)
MIC Enterococccus faecalis (ATCC 29212) (Enterococcus sp.): 2 µg/mL (≈ 1.39 µM)
MIC Enterococccus faecalis (GC 2691) (Enterococcus sp.): 4 µg/mL (≈ 2.77 µM)
MIC Enterococccus faecalis (GC 3059) (Enterococcus sp.): 2 µg/mL (≈ 1.39 µM)
MIC Enterococccus faecalis (GC 4552) (Enterococcus sp.): 4 µg/mL (≈ 2.77 µM)
MIC Enterococccus faecalis (GC 4553) (Enterococcus sp.): 4 µg/mL (≈ 2.77 µM)
MIC Enterococccus faecalis (GC 4554) (Enterococcus sp.): 4 µg/mL (≈ 2.77 µM)
MIC Enterococccus faecalis (GC 6189) (Enterococcus sp.): 2 µg/mL (≈ 1.39 µM)
MIC Enterococccus faecium (GC 2243) (Enterococcus sp.): 4 µg/mL (≈ 2.77 µM)
MIC Enterococccus faecium (GC 4556) (Enterococcus sp.): 4 µg/mL (≈ 2.77 µM)
MIC Enterococccus faecium (GC 4557) (Enterococcus sp.): 4 µg/mL (≈ 2.77 µM)
MIC Enterococcus faecalis (GC 2242) (Enterococcus sp.): 4 µg/mL (≈ 2.77 µM)
MIC Coagulase Negative Staphylococcus (GC 4547) (Staphylococcus sp.; [1]): 4 µg/mL (≈ 2.77 µM)
MIC Coagulase Negative Staphylococcus (GC 4548) (Staphylococcus sp.; [1]): 2 µg/mL (≈ 1.39 µM)
MIC Coagulase Negative Staphylococcus (GC 4549) (Staphylococcus sp.; [1]): 1 µg/mL (≈ 0.694 µM)
MIC Coagulase Negative Staphylococcus (GC 4551) (Staphylococcus sp.; [1]): 2 µg/mL (≈ 1.39 µM)
MIC Staphylococcus aureus-SMITH (GC 4543) (Staphylococcus sp.; [1]): 2 µg/mL (≈ 1.39 µM)
MIC Staphylococcus aureus (ATCC 29213) (Staphylococcus sp.): 2 µg/mL (≈ 1.39 µM)
MIC Staphylococcus aureus (ATCC 29213) (Staphylococcus sp.; [2]): 2 µg/mL (≈ 1.39 µM)
MIC Staphylococcus aureus (GC 1131) (Staphylococcus sp.): 4 µg/mL (≈ 2.77 µM)
MIC Staphylococcus aureus (GC 1131) (Staphylococcus sp.; [2]): 4 µg/mL (≈ 2.77 µM)
MIC Staphylococcus aureus (GC 3051) (Staphylococcus sp.): 2 µg/mL (≈ 1.39 µM)
MIC Staphylococcus aureus (GC 3051) (Staphylococcus sp.; [2]): 2 µg/mL (≈ 1.39 µM)
MIC Staphylococcus aureus (GC 3053) (Staphylococcus sp.): 2 µg/mL (≈ 1.39 µM)
MIC Staphylococcus aureus (GC 3053) (Staphylococcus sp.; [2]): 2 µg/mL (≈ 1.39 µM)
MIC Staphylococcus aureus (GC 4541) (Staphylococcus sp.): 4 µg/mL (≈ 2.77 µM)
MIC Staphylococcus aureus (GC 4541) (Staphylococcus sp.; [2]): 4 µg/mL (≈ 2.77 µM)
MIC Staphylococcus aureus (GC 4542) (Staphylococcus sp.): 2 µg/mL (≈ 1.39 µM)
MIC Staphylococcus aureus (GC 4542) (Staphylococcus sp.; [2]): 2 µg/mL (≈ 1.39 µM)
MIC Staphylococcus aureus-SMITH (GC 4543) (Staphylococcus sp.; strain GC 4543, broth dilution, 18 hours at 35° C.): 2 µg/mL (≈ 1.39 µM)
MIC Staphylococcus aureus (GC 4544) (Staphylococcus sp.): 4 µg/mL (≈ 2.77 µM)
MIC Staphylococcus aureus (GC 4544) (Staphylococcus sp.; [2]): 4 µg/mL (≈ 2.77 µM)
MIC Staphylococcus aureus (GC 4545) (Staphylococcus sp.): 2 µg/mL (≈ 1.39 µM)
MIC Staphylococcus aureus (GC 4545) (Staphylococcus sp.; [2]): 2 µg/mL (≈ 1.39 µM)
MIC Coagulase Negative Staphylococcus (GC 4547) (Staphylococcus sp.; strain GC 4547, broth dilution, 18 hours at 35° C.): 4 µg/mL (≈ 2.77 µM)
MIC Coagulase Negative Staphylococcus (GC 4548) (Staphylococcus sp.; strain GC 4548, broth dilution, 18 hours at 35° C.): 2 µg/mL (≈ 1.39 µM)
MIC Coagulase Negative Staphylococcus (GC 4549) (Staphylococcus sp.; strain GC 4549, broth dilution, 18 hours at 35° C.): 1 µg/mL (≈ 0.694 µM)
MIC Coagulase Negative Staphylococcus (GC 4551) (Staphylococcus sp.; strain GC 4551, broth dilution, 18 hours at 35° C.): 2 µg/mL (≈ 1.39 µM)
MIC Escherichia coli (ATCC 25922) (Escherichia coli): 64 µg/mL (≈ 44.4 µM)
MIC Escherichia coli (GC 4559) (Escherichia coli): 64 µg/mL (≈ 44.4 µM)
MIC Escherichia coli (GC 4560) (Escherichia coli): 4 µg/mL (≈ 2.77 µM)
MIC Streptococcus agalactiae (GC 4564) (Streptococcus sp.): <0.12 µg/mL
MIC Streptococcus pneumoniae (GC 1894) (Streptococcus sp.): <0.12 µg/mL
MIC Streptococcus pneumoniae (GC 4565) (Streptococcus sp.): <0.12 µg/mL
MIC Streptococcus pneumonine (ATCC 6301) (Streptococcus sp.): <0.12 µg/mL
MIC Streptococcus pyogenes (GC 4563) (Streptococcus sp.): 0.25 µg/mL (≈ 0.173 µM)
SMILES: CC(c1ccccc1)C1NC(=O)CNC(=O)C(CO)NC(=O)C(C(O)C2CNC(=N)N2C2OC(CO)C(O)C(O)C2O)NC(=O)C(C(O)C2CNC(=N)N2)NC(=O)C(Cc2ccc(OC3OC(CO)C(OC4OC5COC(C67CC8CC(CC(C8)C6)C7)OC5C(O)C4O)C(O)C3O)cc2)NC1=O (stereo not drawn) [Example 127]
MIC Staphylococcus haemolyticus (GC 4546) (Staphylococcus sp.; [1]): 2 µg/mL (≈ 1.39 µM)
MIC Staphylococcus haemolyticus (GC 4546) (Staphylococcus sp.; strain GC 4546, broth dilution, 18 hours at 35° C.): 2 µg/mL (≈ 1.39 µM)
